Results as given in PMC7136958, “Targeting the pregnane X receptor using microbial metabolite mimicry” (EMBO Molecular Medicine, 2020).

Columns and labels:
PXR = biological target: T1, PXR (Homo sapiens, UniProt O75469); experiment: Ligand efficiency metric (LEM) analysis; set-up: expressed in transfected cells; host or cells: LS180; settings: NSEI-nBEI plane, from PXR reporter Emax
T1 sequence (O75469 1-434): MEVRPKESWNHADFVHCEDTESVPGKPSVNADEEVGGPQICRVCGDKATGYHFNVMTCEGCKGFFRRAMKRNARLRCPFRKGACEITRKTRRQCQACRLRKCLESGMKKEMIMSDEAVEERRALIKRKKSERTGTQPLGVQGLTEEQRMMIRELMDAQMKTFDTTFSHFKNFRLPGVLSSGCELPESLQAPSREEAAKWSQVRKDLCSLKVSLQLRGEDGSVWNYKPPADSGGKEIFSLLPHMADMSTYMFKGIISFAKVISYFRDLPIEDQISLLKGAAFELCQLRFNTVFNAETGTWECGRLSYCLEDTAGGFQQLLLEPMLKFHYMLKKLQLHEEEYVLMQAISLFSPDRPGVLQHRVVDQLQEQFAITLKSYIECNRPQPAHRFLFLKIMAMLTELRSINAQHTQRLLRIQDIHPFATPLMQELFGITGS
From the text: Ligand efficiency metric (LEM) analysis for FKK ligand efficiency. The ligand efficiency metrics (LEMs) of compounds FKK1 to 10 and FKK999 as a reference compound, have been analyzed by using a web tool named AtlasCBS which represents LEMs as variables for a Cartesian mapping of chemico-biological space (CBS). In particular, Cartesian planes combine three critical variables in drug discovery (affinity, size, and polarity) into easily interpretable ‘efficiency planes’ useful to guide a drug discovery process. In the Cartesian plane, each target:ligand pair appears as a point whose coordinates are given by pairs of values derived from the affinity of the ligand toward the target (Ki or equivalent) in relation to its size (MW or number of non-hydrogen atoms NHA), and its polarity (expressed as Polar Surface Area, PSA, or number of polar atoms, NPOL = count of N + O). The first one represents a size-related LEM and the second a polarity-related LEM. Consistently, compounds that correspond to marketed drugs typically occupy the upper right quadrant of the plots (‘Nort h-East’ direction, NE), where both the efficiency -pe r-size and efficiency -per-polarity are optimized 1,2.
Our results are represented in the efficiency plane NS EI-nBEI where:
NSEI = –log Ki/NPOL (N, O) = pKi/NPOL (N, O)
As a measure of activity of the above compounds, the reciprocal of the percentage efficacy values (1/Efficacy [%]) obtained in the PXR-dependent luciferase activity test (Emax values from Fig. 1) were used in lieu of the affinity constants (Ki in the above equations). FKK4 would appear as the most efficient compound since it is placed in the NE panel (GL, unpublished observations). However, this congener might suffer from metabolic liability with its N-protecting group possibly generating toxic aldehydes by oxidative cleavage in vivo. Unambiguously, the two most efficient compounds besides FKK4 are FKK5 and FKK6 which were therefore considered suitable lead compounds, as al so

[1] = biological target: T2, Human constitutive androstane receptor (hCAR) (Homo sapiens, UniProt Q14994); experiment: hCAR reporter activity in HEK293T cells; format: cell-based
T2 construct: expressed in transfected cells; host or cells: HEK293T
Method: Reverse transfection assays were performed in Caco‐2 cells as previously published with the following modifications (Kublbeck et al, 2015). 3.0 × 10^4 cells per well were transfected using pSG5‐PXR plasmid (300 ng/well), β‐Gal expression plasmid (600 ng/well), and CYP3A4‐luciferase reporter (500 ng/well) (Huang et al, 2007). After 24‐h transfection using Lipofectamine® LTX ([…] of plasmid), cells were exposed to FKK5 for 24 h. Cell lysates were prepared for β‐Gal and luciferase assays as previously published (Huang et al, 2007). The data are expressed as mean ± SD RLU (relative light units from luciferase assay) normalized to β‐Gal activity in the same well. Differences were tested using 2‐way ANOVA with Tukey's multiple comparison test, and P < 0.05 was considered significant (*). Standard transient transfection assays (PXR, CAR) in HEK293T cells were performed as previously published (Huang et al, 2007).

T2 sequence (Q14994 whole entry): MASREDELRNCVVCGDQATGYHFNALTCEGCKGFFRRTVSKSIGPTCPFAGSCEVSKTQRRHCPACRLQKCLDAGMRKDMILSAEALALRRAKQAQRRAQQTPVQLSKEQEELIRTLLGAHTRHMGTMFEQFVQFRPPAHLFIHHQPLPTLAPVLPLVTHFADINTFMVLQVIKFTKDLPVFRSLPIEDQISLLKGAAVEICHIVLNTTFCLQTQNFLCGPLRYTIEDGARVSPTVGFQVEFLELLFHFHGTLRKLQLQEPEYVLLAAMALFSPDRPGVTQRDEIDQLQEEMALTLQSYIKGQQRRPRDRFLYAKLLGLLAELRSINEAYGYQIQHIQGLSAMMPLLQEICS

C#CCC(O)(c1ccncc1)c1cc2ccccc2n1S(=O)(=O)c1ccccc1 (stereo not shown) [FKK6]
LEM analysis prediction (PXR): best candidates for further studies
CAR activity induction [1]: did not induce

O=C(c1ccncc1)c1cc2ccccc2n1S(=O)(=O)c1ccccc1 [FKK5, (1-(phenylsulfonyl)-1H-indol-2-yl)(pyridin-4-yl)methanone]
LEM analysis prediction (PXR): best candidates for further studies
CAR activity induction [1]: did not induce
